Test results as given in patent US20210113492A1, “METHOD FOR INHIBITING PROLIFERATION AND METASTASIS OF CANCER CELLS BY USING NAPHTHOQUINONE DERIVATIVE” (National Tsing Hua University, priority 2019, published 2021).

Target: T1, NQO1 (Homo sapiens, UniProt P15559)
T1 construct: endogenous in cells; host or cells: OC3-IV2 (human oral squamous cell carcinoma), cytosolic fraction / lysate supernatant
Assay: NQO1 enzymatic activity assay (substrate reduction with NADH and WST1)
Format: biochemical
Details: cytosolic fractions of OC3-IV2 cells; isoplumbagin 5 μM and 10 μM, menadione 1X and 2X
Procedure: FIG. 4 proves that isoplumbagin is a substrate of NQO1. The cytosolic fractions of OC3-IV2 cells were used for the NQO1 enzymatic activity assay. The NQO1 enzyme activity was calculated by measuring the simultaneous reduction of menadione or isoplumbagin with cofactor NADH and WST1 (a highly sensitive tetrazolium reagent) which leads to increased absorbance at 450 nm. NQO1 activity assay kit (#ab184867) was purchased from Abcam (Cambridge, Mass., USA). OC3-IV2 cells were lysed with 1X extraction buffer containing 1 mM phenylmethylsulfonyl fluoride (PMSF) for 15 min on ice, and then centrifuged at 17,000×g at 4° C. for 20 min. The supernatant was collected and then the protein concentration of each sample was determined by BCA assays (Santa Cruz Biotechnology). Diluted sample and reaction buffer were added into 96-wells plate containing menadione (1X and 2X) or different concentrations of isoplumbagin (5 μM and 10 μM) with cofactor NADH and WST1. The absorbance of reduced WST1 was measured at 450 nm wavelengths by a spectrophotometer. Data from three independent experiments are presented as mean ±SEM (*P<0.05 compared with no substrate, paired Student's t-test).

T1 sequence (P15559 whole entry): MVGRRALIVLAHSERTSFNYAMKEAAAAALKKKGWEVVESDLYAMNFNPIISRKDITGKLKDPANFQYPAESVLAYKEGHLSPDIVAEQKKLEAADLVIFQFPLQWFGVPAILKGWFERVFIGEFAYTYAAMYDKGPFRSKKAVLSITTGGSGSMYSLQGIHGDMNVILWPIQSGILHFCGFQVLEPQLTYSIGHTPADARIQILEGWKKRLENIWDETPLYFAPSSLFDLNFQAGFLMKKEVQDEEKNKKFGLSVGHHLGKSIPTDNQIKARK

substrate of NQO1 (reduction with NADH and WST1, absorbance at 450 nm): substrates of NQO1
Compound: CC1=CC(=O)c2ccccc2C1=O [menadione, reference compound]
